# Key:
# HT-29 cells [1] = assay: cell proliferation of HT-29 intestinal epithelial cells (Cellvia kit, BrdU kit); type: cell-based; conditions: different concentrations, 24, 48 and 72 hours, FIG. 75
# Protocol: It is known from studies using GPR39 deficient mice that GPR39 is involved in the growth and differentiation of intestinal tissue cells (Phil. Trans. R. Soc. B., 2016, 371:20150420). Therefore, in order to confirm the effect of HKFY-34 on the growth of intestinal tissue cells, the degree of cell proliferation by HKFY-34 was measured using HT-29 cells (Korea Cell Line Bank), which are intestinal epithelial cells.
# Specifically, HT-29 cells were cultured in a 96 well plate and then treated with HKFY-34 at different concentrations for 24, 48, and 72 hours. The cell proliferation of the cultured cells was measured using a Cellvia kit (AB frontier) and a BrdU cell proliferation kit (abcam).
# HT-29 cells [2] = assay: tight junction factor (ZO-1, occludin) expression in HT-29 cells, qPCR and Western blot; type: cell-based; conditions: HT-29, different concentrations, vs vehicle
# Protocol: It is known that GPR39 is involved in the protection of the gastrointestinal tract (Phil. Trans. R. Soc. B., 2016, 371:20150420). Therefore, in order to confirm the effect of HKFY-34 on the gastrointestinal tract protective function by GPR39, the promoting activity of HKFY-34 on tight junction was evaluated using HT-29 cells, which are important for intestinal tissue formation.
# Specifically, the HT-29 cells were treated with HKFY-34 at different concentrations, and then the expression levels of mRNA (FIG. 77) and protein (FIG. 78) of ZO-1 and occludin, which are important factors of tight junction in intestinal barrier function, were confirmed through quantitative RT-PCR (qPCR) and Western blot.
# AMPK = assay: phosphorylation of AMPK in HT-29 cells, Western blot; type: cell-based
# From the text: It is known that tight junctions are mediated by a signaling mechanism due to phosphorylation of AMPK protein. Therefore, in order to confirm whether AMPK is involved in the increase in tight junctions by HKFY-34, the expression of p-AMPK in the cells was confirmed using HT-29 cells (FIGS. 79 and 80).
# In addition, when treated with HKFY-34 after pretreatment with an AMPK inhibitor (STO-609), it was confirmed that the expression level of p-AMPK, which was increased due to HKFY-34 treatment, was decreased (FIG. 80).
# [3] = system: C57BL6/J mice with ulcerative colitis induced by DSS; assay: DSS-induced ulcerative colitis animal model; type: in vivo
# Protocol: Specifically, an animal model of ulcerative colitis among inflammatory bowel diseases was prepared by feeding C57BL6/J mice (Central Lab. Animal Inc.) with water containing 3% DSS (dextran sodium sulfate).
# The untreated (vehicle) mice were set as a control group, the mice fed with only DSS (vehicle+3% DSS) were set as a negative control group, and the mice administered intraperitoneally with SASP (sulfasalazine) at 50 mg/kg after treatment with DSS (SASP 50 mg/kg+3% DSS) were set as a positive control group. As a test group, the mice were intraperitoneally administered with HKFY-34 at 0.1, 1, and 10 mg/kg, respectively. HKFY-34 was administered once a day for 5 days, and during the administration period, the stool condition and body weight loss were measured in the subjects. […]
# [4] = system: ulcerative colitis-induced wild type mice; assay: DSS-induced ulcerative colitis in wild type littermate mice; type: in vivo
# Protocol: In order to confirm the effect of HKFY-34 in an inflammatory bowel disease model using GPR39 as a target substance, a disease model of ulcerative colitis was prepared using GPR39 deficient mice (GPR39 knock out (KO), Gpr39^−/−). At this time, wild type mice born from a litter were set as a control group for each treated group of GPR39 deficient mice.
# Specifically, an animal model of ulcerative colitis was prepared by feeding GPR39 deficient mice (Lexicon pharmaceuticals) and wild type mice with water containing 3% DSS in the same manner as in Experimental Example 7. GPR39 KO mice fed with only DSS (vehicle+3% DSS) were set as a negative control group, and GPR39 KO mice administered with HKFY-34 (10 mg/kg) (HKFY-34 10 mg/kg+3% DSS) were set as a test group. Intraperitoneal administration was performed once a day for 5 days.
# GPR39 = molecular target: T1, GPR39 (Homo sapiens, UniProt O43194); assay: calcium influx assay system (aequorin, CV-1 cells); type: cell-based; set-up: host or cells: CV-1 fibroblast cell line, lipofectamine transfection; conditions: CV-1 transfected with hGPR39, Gαq
# T1 sequence (O43194 1-453): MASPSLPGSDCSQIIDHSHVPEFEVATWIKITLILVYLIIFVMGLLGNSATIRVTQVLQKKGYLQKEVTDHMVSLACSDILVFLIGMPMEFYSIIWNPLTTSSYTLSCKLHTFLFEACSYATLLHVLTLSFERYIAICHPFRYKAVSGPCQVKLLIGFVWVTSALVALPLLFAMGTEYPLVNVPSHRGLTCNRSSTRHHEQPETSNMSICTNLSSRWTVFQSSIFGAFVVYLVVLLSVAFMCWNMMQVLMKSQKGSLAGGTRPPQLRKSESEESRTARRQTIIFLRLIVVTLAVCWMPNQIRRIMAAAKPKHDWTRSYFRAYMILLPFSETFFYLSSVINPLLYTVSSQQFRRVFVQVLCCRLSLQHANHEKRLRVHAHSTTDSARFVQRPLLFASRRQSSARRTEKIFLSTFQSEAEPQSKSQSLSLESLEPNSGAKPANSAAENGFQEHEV
# From the text: After culturing, the degree of binding of calcium activated by activated GPR39 to aequrin was quantified using a luminometer (bottom in FIG. 73).
# [5] = 0.1, 1 and 10 mg/kg intraperitoneal for 5 days, ELISA, vs negative control, FIG. 88
# [6] = 0.1, 1 and 10 mg/kg intraperitoneal for 5 days, qPCR, FIG. 90
# [7] = 0.1, 1 and 10 mg/kg intraperitoneal for 5 days, qPCR, vs negative control, FIG. 87
compound,measurement,setting,value
"CCCCCCCC(=O)NCCCC[C@H](NC(=O)[C@@H](N)Cc1cn(C(c2ccccc2)c2ccccc2)cn1)C(=O)N[C@H](Cc1ccc(C)cc1)C(=O)N[C@@H](Cc1ccc(O)cc1)C(=O)O [HKFY-34, ((R)-2-((S)-2-((S)-2-amino-3-(1-benzhydryl-1H-imidazol-4-yl)propanamido)-6-octanamidohexanamido)-3-(p-tolyl)propanoyl)-L-tyrosine]",proliferation of HT-29 cells,HT-29 cells [1],increased by HKFY-34 in a dose-dependent manner
same,protein expression level of ZO-1,"HT-29 cells [2]; Western blot, FIG. 78",significantly increased by HKFY-34 in a dose-dependent manner
same,protein expression level of occludin,"HT-29 cells [2]; Western blot, FIG. 78",significantly increased by HKFY-34 in a dose-dependent manner
same,mRNA expression level of ZO-1,"HT-29 cells [2]; qPCR, FIG. 77",significantly increased by HKFY-34 in a dose-dependent manner
same,mRNA expression level of occludin,"HT-29 cells [2]; qPCR, FIG. 77",significantly increased by HKFY-34 in a dose-dependent manner
same,expression of p-AMPK protein,"AMPK; HT-29, different concentrations, vs vehicle, FIG. 79",increased by HKFY-34 in a dose-dependent manner
same,expression level of p-AMPK after pretreatment with AMPK inhibitor,"AMPK; HT-29, pretreatment with STO-609 1 μM, vs HKFY-34 treatment, FIG. 80",decreased
same,concentration of IL-1β in the blood,[3]; [5],significantly decreased
same,concentration of TNF-α in the blood,[3]; [5],significantly decreased
same,mRNA expression level of ZO-1 in colon tissue,[3]; [6],significantly increased by HKFY-34 in a dose-dependent manner
same,mRNA expression level of occludin in colon tissue,[3]; [6],significantly increased by HKFY-34 in a dose-dependent manner
same,mRNA expression level of IL-1β in colon tissue,[3]; [7],significantly decreased
same,mRNA expression level of IL-6 in colon tissue,[3]; [7],significantly decreased
same,mRNA expression level of IL-8 in colon tissue,[3]; [7],significantly decreased
same,mRNA expression level of TNF-α in colon tissue,[3]; [7],significantly decreased
same,length contraction of the colon,"[3]; 0.1, 1 and 10 mg/kg intraperitoneal for 5 days, vs negative control (DSS alone), FIG. 84",reduced by HKFY-34 in a dose-dependent manner
same,degree of damage caused by inflammation of the colon tissue (H&E staining),"[3]; 0.1, 1 and 10 mg/kg intraperitoneal for 5 days, vs negative control, FIG. 89",alleviated
same,body weight loss,"[3]; 0.1, 1 and 10 mg/kg intraperitoneal once a day for 5 days, 3% DSS, FIG. 83",significantly inhibited by HKFY-34 in a dose-dependent manner
same,stool consistency (diarrhea) score,"[3]; 0.1, 1 and 10 mg/kg intraperitoneal, score 0 to 3, FIG. 85",alleviated in a dose-dependent manner
same,blood in stool (fecal bleeding) score,"[3]; 0.1, 1 and 10 mg/kg intraperitoneal, score 0 to 3, FIG. 86",alleviated in a dose-dependent manner
same,decrease in colon length,"[4]; 10 mg/kg intraperitoneal for 5 days, FIG. 92",inhibited
same,damage due to inflammation of colon tissue (H&E staining),"[4]; 10 mg/kg intraperitoneal for 5 days, FIG. 95",reduced
same,body weight loss,"[4]; 10 mg/kg intraperitoneal once a day for 5 days, 3% DSS, FIG. 91",inhibited
same,Ca2+ influx assay ECmax (−fold induction over basal),GPR39,2.4 ± 4.59 fold induction over basal
